In US20260364184A1, “COMPOUND BASED ON OXOISOINDOLINYL-SUBSTITUTED TETRAHYDROPYRIMIDINE-DIONE AND USE THEREOF” (GLUETACS THERAPEUTICS (SHANGHAI) CO., LTD., priority 2023, published 2026):

Legend:
[1] = tested on: Human lung cancer cell line (H292); assay: Inhibition of H292 cell proliferation (CellTiter luminescent viability); format: cell-based; conditions: NCI-H292, Table IE2, CDK4/6 inhibitor-based, 96 hours; for inhibition at 0.01 µM: H292, 10 nM, read-out: Inhibition Rate at 10 nM (%); for inhibition at 0.5 µM: H292, 500 nM, read-out: Inhibition Rate at 500 nM (%)
[2] = target: T1, CDK4 (Homo sapiens, UniProt P11802+Q96SW2); assay: Western blot degradation of CDK4; format: cell-based; conditions: MDA-MB-231 Cell; 24 hours
T1 construct: expression of target proteins in cells; endogenous in cells
Method: (§1) Conventional Western blot assay was performed to evaluate the effects of the compounds of the present disclosure on the expression of target proteins in cells.
(§2) (1) Cell Seeding and Protein Harvesting: The selected cells were processed according to the cell seeding procedure and protein harvesting procedure in Table II-2.
(§3) (2) To the collected supernatant, 5×SDS sample loading buffer was added, followed by denaturation at 95 °C for 5 minutes. The denatured samples were then separated by SDS-PAGE electrophoresis on a polyacrylamide gel. Proteins were transferred to a nitrocellulose membrane (0.45 μm NC membrane), blocked with blocking buffer at room temperature for 1 hour, and subjected to antibody incubation and development procedures according to the antibody manufacturer's instructions (Cell Signaling Technology).
(§4) Half-Maximal Degradation Concentration value (the drug concentration required for degrading proteins by 50%, abbreviated as DC50) reads method: comparing the grayscale values of Western blot bands from drug-treated samples with those from blank DMSO-treated controls, and identifying the drug concentration range at which the grayscale value is half that of the DMSO-treated control bands.
(§5) DC50 values can be calculated using ImageJ software to measure grayscale values of Western blot bands from drug-treated samples. The concentration-response curve is fitted to estimate the drug concentration corresponding to half the grayscale value.
(§6) Target protein remaining (%) refers to the percentage of target protein remaining in cells after treatment with protein degrader compounds.
(§7) Calculation method for target protein remaining (%): Use ImageJ software to measure grayscale values of Western blot bands from drug (protein degrader)-treated samples. The grayscale value of drug-treated bands is divided by that of internal control protein bands, and the resulting quotient is normalized to obtain the relative percentage of remaining target protein after protein degrader treatment.
(§8) Target protein degradation rate (%)=1−target protein remaining (%).

[3] = target: T2, CDK6 (Homo sapiens, UniProt Q00534+Q96SW2); assay: Western blot degradation of CDK6; format: cell-based; conditions: MDA-MB-231 Cell; 24 hours
T2 construct: expression of target proteins in cells; endogenous in cells
Method: as §1, §2, §3, §4, §5, §6, §7, §8

[4] = target: T3, human Cereblon WT GST-tagged protein (CRBN) (Homo sapiens, UniProt Q96SW2); assay: CRBN binding by HTRF (Cereblon binding kit)
T3 construct: purchased CISBIO 64BDCRBNPEH
Method in brief: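 GST-tagged human Cereblon WT was incubated 3 h at room temperature with compound, thalidomide-Re tracer and Eu anti-GST antibody. Final compound concentrations were 10 to 0.00064 µM (7 points) or 2 and 0.5 µM. Inhibition rate was calculated from HTRF 665/620 nm ratios versus solvent and blank controls.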

[5] = tested on: Human myeloid monocytic leukemia cell line (MV-4-11); assay: Inhibition of MV-4-11 cell proliferation (CellTiter luminescent viability); format: cell-based; conditions: Homo sapiens, MV4-11, Table IE3, CDK4/6 inhibitor-based, 96 hours
Method in brief: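 Cells are seeded in 96-well plates, cultured at 37 °C, 5% CO2, and treated next day with 5-fold serial compound dilutions (stock series from 2000 μM; 0.5 μL into 100 μL medium). Viability is read by CellTiter-Meiluncell luminescence after the set exposure, and IC50 is taken from growth-inhibition curves.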

T1 sequence (P11802 whole entry): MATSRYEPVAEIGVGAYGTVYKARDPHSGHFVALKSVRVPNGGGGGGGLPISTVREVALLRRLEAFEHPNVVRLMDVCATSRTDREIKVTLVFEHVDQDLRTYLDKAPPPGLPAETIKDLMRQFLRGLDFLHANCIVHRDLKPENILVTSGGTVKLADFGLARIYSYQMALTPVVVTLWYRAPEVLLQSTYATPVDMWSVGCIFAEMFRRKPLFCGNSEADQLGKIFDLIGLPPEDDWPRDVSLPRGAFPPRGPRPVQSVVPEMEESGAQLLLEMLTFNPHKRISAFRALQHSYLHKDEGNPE
T1 sequence (Q96SW2 whole entry): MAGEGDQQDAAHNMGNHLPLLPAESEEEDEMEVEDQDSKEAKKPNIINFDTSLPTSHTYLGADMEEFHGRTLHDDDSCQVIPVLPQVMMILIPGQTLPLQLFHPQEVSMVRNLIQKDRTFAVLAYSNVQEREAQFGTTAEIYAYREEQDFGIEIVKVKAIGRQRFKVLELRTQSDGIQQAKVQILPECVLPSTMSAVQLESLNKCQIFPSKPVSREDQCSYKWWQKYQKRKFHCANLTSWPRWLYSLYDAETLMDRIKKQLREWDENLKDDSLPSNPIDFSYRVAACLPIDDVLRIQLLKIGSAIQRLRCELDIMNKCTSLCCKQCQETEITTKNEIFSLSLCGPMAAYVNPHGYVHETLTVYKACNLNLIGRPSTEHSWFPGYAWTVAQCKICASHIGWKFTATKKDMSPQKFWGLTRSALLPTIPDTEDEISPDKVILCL
T1 sequence (Q16531 whole entry partner): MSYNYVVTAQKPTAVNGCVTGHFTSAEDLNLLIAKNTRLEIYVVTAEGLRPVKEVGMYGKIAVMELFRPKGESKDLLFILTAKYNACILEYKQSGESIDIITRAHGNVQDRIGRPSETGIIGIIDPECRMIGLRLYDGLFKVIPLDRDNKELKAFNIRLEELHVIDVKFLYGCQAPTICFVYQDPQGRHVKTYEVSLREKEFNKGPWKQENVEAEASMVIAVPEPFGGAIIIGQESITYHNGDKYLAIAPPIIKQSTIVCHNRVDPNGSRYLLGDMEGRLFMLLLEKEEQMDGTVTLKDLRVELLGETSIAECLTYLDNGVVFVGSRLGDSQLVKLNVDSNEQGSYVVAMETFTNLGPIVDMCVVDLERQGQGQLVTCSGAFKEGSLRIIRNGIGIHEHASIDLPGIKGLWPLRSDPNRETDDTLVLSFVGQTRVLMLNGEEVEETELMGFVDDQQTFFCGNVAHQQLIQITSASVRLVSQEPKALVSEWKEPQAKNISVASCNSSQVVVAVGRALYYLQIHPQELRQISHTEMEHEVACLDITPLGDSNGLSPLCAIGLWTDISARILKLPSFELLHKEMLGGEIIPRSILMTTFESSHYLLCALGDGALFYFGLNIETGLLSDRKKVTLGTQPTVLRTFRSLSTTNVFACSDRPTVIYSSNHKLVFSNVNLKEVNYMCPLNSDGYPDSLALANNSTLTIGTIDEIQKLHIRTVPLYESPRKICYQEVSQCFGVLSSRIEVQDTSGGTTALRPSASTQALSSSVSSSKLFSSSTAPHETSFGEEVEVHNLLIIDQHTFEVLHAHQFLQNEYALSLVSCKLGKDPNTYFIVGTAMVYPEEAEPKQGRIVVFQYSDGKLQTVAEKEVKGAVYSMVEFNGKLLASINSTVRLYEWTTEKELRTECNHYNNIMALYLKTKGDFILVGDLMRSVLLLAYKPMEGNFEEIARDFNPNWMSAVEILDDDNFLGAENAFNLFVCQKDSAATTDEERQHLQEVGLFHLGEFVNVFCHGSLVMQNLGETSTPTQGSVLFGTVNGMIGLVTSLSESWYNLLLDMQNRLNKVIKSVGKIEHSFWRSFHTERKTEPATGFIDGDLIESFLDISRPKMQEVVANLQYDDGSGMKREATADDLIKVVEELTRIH
T2 sequence (Q00534 whole entry): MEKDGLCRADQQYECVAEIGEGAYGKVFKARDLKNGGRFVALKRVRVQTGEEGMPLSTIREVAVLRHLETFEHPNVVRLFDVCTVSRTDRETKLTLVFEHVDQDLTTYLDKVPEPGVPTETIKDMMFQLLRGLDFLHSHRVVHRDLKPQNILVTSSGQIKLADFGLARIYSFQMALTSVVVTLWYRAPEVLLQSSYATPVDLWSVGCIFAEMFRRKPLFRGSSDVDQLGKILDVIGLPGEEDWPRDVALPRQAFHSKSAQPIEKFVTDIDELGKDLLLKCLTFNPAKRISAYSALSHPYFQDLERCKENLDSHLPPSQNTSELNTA
T2 sequence (Q96SW2 whole entry): as the sequence (Q96SW2 whole entry) above
T2 sequence (Q16531 whole entry partner): as the sequence (Q16531 whole entry partner) above
T3 sequence (Q96SW2 whole entry): as the sequence (Q96SW2 whole entry) above

| Degradation of substrate protein CDK4 (substrate protein remaining %) [2] | Degradation of substrate protein CDK6 (substrate protein remaining %) [3] | inhibition at 0.5 µM ([4]; 0.5 μM, read-out: Inhibition Rate at 0.5 μM (%)) [%] | inhibition at 2 µM ([4]; 2 μM, read-out: Inhibition Rate at 2 μM (%)) [%] | Structure (SMILES) | inhibition at 0.01 µM [1] [%] | inhibition at 0.5 µM [1] [%] | inhibition at 0.01 µM ([5]; MV-4-11, 10 nM, read-out: Inhibition Rate at 10 nM (%)) [%] | inhibition at 0.5 µM ([5]; MV-4-11, 500 nM, read-out: Inhibition Rate at 500 nM (%)) [%] |
| --- | --- | --- | --- | --- | --- | --- | --- | --- |
| A (0%≤substrate protein remaining %≤80%) | A (0%≤substrate protein remaining %≤80%) | – | – | CN(C)C(=O)c1cc2cnc(Nc3ccc(N4CCC(N(C)Cc5ccc6c(c5)CN(N5CCC(=O)NC5=O)C6=O)CC4)cn3)nc2n1C1CCCC1 [GT-06487, 7-cyclopentyl-2-((5-(4-(((2-(2,4-dioxotetrahydropyrimidin-1(2H)-yl)-1-oxoisoindolin-5-yl)methyl)(methyl)amino)piperidin-1-yl)pyridin-2-yl)amino)-N,N-dimethyl-7H-pyrrolo[2,3-d]pyrimidine-6-carboxamide] | 25 to 30 | 40 to 60 | – | – |
| A (0%≤substrate protein remaining %≤80%) | A (0%≤substrate protein remaining %≤80%) | – | – | CN(C)C(=O)c1cc2cnc(Nc3ccc(N4CCN(CC5CCN(c6cccc7c6C(=O)N(N6CCC(=O)NC6=O)C7=O)CC5)CC4)cn3)nc2n1C1CCCC1 [GT-06338, 7-cyclopentyl-2-((5-(4-((1-(2-(2,4-dioxotetrahydropyrimidin-1(2H)-yl)-1,3-dioxoisoindolin-4-yl)piperidin-4-yl)methyl)piperazin-1-yl)pyridin-2-yl)amino)-N,N-dimethyl-7H-pyrrolo[2,3-d]pyrimidine-6-carboxamide] | 30 to 35 | 40 to 60 | – | – |
| A (0%≤substrate protein remaining %≤80%) | A (0%≤substrate protein remaining %≤80%) | – | – | CN(C)C(=O)c1cc2cnc(Nc3ccc(N4CCC(N5CCN(Cc6ccc7c(c6)C(=O)N(N6CCC(=O)NC6=O)C7=O)CC5)CC4)cn3)nc2n1C1CCCC1 [GT-06498, 7-cyclopentyl-2-((5-(4-(4-((2-(2,4-dioxotetrahydropyrimidin-1(2H)-yl)-1,3-dioxoisoindolin-5-yl)methyl)piperazin-1-yl)piperidin-1-yl)pyridin-2-yl)amino)-N,N-dimethyl-7H-pyrrolo[2,3-d]pyrimidine-6-carboxamide] | – | – | – | – |
| A (0%≤substrate protein remaining %≤80%) | A (0%≤substrate protein remaining %≤80%) | – | – | CC(=O)c1c(C)c2cnc(Nc3ccc(N4CCC(N(C)Cc5ccc6c(c5)CN(N5CCC(=O)NC5=O)C6=O)CC4)cn3)nc2n(C2CCCC2)c1=O [GT-06586, 1-(5-(((1-(6-((6-acetyl-8-cyclopentyl-5-methyl-7-oxo-7,8-dihydropyrido[2,3-d]pyrimidin-2-yl)amino)pyridin-3-yl)piperidin-4-yl)(methyl)amino)methyl)-1-oxoisoindolin-2-yl)dihydropyrimidine-2,4 (1H,3H)-dione] | – | – | 25 to 30 | 40 to 60 |
| A (0%≤substrate protein remaining %≤80%) | A (0%≤substrate protein remaining %≤80%) | – | – | CN(C)C(=O)c1cc2cnc(Nc3ccc(N4CCC(N5CCN(Cc6ccc7c(c6)CN(N6CCC(=O)NC6=O)C7=O)CC5)CC4)cn3)nc2n1C1CCCC1 [GT-06497, 7-cyclopentyl-2-((5-(4-(4-((2-(2,4-dioxotetrahydropyrimidin-1(2H)-yl)-1-oxoisoindolin-5-yl)methyl)piperazin-1-yl)piperidin-1-yl)pyridin-2-yl)amino)-N,N-dimethyl-7H-pyrrolo[2,3-d]pyrimidine-6-carboxamide] | – | – | – | – |

| Structure (SMILES) | Degradation of substrate protein CDK4 (substrate protein remaining %) [2] | Degradation of substrate protein CDK6 (substrate protein remaining %) [3] | inhibition at 0.5 µM ([4]; 0.5 μM, read-out: Inhibition Rate at 0.5 μM (%)) [%] | inhibition at 2 µM ([4]; 2 μM, read-out: Inhibition Rate at 2 μM (%)) [%] | inhibition at 0.01 µM [1] [%] | inhibition at 0.5 µM [1] [%] | inhibition at 0.01 µM ([5]; MV-4-11, 10 nM, read-out: Inhibition Rate at 10 nM (%)) [%] | inhibition at 0.5 µM ([5]; MV-4-11, 500 nM, read-out: Inhibition Rate at 500 nM (%)) [%] |
| --- | --- | --- | --- | --- | --- | --- | --- | --- |
| Cc1nc2c(F)cc(-c3nc(Nc4ccc(CN5CCN(CC6CCN(c7ccc8c(c7)C(=O)N(N7CCC(=O)NC7=O)C8=O)CC6)CC5)cn4)ncc3F)cc2n1C(C)C [GT-06662, 2-(2,4-dioxotetrahydropyrimidin-1(2H)-yl)-5-(4-((4-((6-((5-fluoro-4-(4-fluoro-1-isopropyl-2-methyl-1H-benzo[d]imidazol-6-yl)pyrimidin-2-yl)amino)pyridin-3-yl)methyl)piperazin-1-yl)methyl)piperidin-1-yl)isoindoline-1,3-dione] | B (80%<substrate protein remaining %≤100%) | A (0%≤substrate protein remaining %≤80%) | 30 to 40 | 53 to 60 | – | – | – | – |
| CN(C)C(=O)c1cc2cnc(Nc3ccc(N4CCC(CN5CCN(c6cc7c(cc6F)C(=O)N(N6CCC(=O)NC6=O)C7=O)CC5)CC4)cn3)nc2n1C1CCCC1 [GT-05199, 7-cyclopentyl-2-((5-(4-((4-(2-(2,4-dioxotetrahydropyrimidin-1(2H)-yl)-6-fluoro-1,3-dioxoisoindolin-5-yl)piperazin-1-yl)methyl)piperidin-1-yl)pyridin-2-yl)amino)-N,N-dimethyl-7H-pyrrolo[2,3-d]pyrimidine-6-carboxamide] | B (80%<substrate protein remaining %≤100%) | A (0%≤substrate protein remaining %≤80%) | – | – | 40 to 60 | 35 to 40 | – | – |
| CN(C)C(=O)c1cc2cnc(Nc3ccc(N4CCC(CN5CCN(c6cc(F)c7c(c6)C(=O)N(N6CCC(=O)NC6=O)C7=O)CC5)CC4)cn3)nc2n1C1CCCC1 [GT-05204, 7-cyclopentyl-2-((5-(4-((4-(2-(2,4-dioxotetrahydropyrimidin-1(2H)-yl)-7-fluoro-1,3-dioxoisoindolin-5-yl)piperazin-1-yl)methyl)piperidin-1-yl)pyridin-2-yl)amino)-N,N-dimethyl-7H-pyrrolo[2,3-d]pyrimidine-6-carboxamide] | B (80%<substrate protein remaining %≤100%) | A (0%≤substrate protein remaining %≤80%) | – | – | – | – | – | – |
| CN(C)C(=O)c1cc2cnc(Nc3ccc(N4CCN(Cc5ccc6c(c5)C(=O)N(N5CCC(=O)NC5=O)C6=O)CC4)cn3)nc2n1C1CCCC1 [GT-06336, 7-cyclopentyl-2-((5-(4-((2-(2,4-dioxotetrahydropyrimidin-1(2H)-yl)-1,3-dioxoisoindolin-5-yl)methyl)piperazin-1-yl)pyridin-2-yl)amino)-N,N-dimethyl-7H-pyrrolo[2,3-d]pyrimidine-6-carboxamide] | A (0%≤substrate protein remaining %≤80%) | B (80%<substrate protein remaining %≤100%) | – | – | – | – | – | – |
| CN(C)C(=O)c1cc2cnc(Nc3ccc(N4CCC(CN5CCN(c6ccc7c(c6F)C(=O)N(N6CCC(=O)NC6=O)C7=O)CC5)CC4)cn3)nc2n1C1CCCC1 [GT-05203, 7-cyclopentyl-2-((5-(4-((4-(2-(2,4-dioxotetrahydropyrimidin-1(2H)-yl)-4-fluoro-1,3-dioxoisoindolin-5-yl)piperazin-1-yl)methyl)piperidin-1-yl)pyridin-2-yl)amino)-N,N-dimethyl-7H-pyrrolo[2,3-d]pyrimidine-6-carboxamide] | B (80%<substrate protein remaining %≤100%) | A (0%≤substrate protein remaining %≤80%) | – | – | – | – | – | – |
